Measurements from EP0443573A2, “HIV protease inhibitors containing derived amino acids” (BIO-MEGA/BOEHRINGER INGELHEIM RESEARCH INC., priority 1990, dated 1991).

Columns and labels:
[1] = biological target: T1, HIV protease (Human immunodeficiency virus type 1 group M subtype B, UniProt P04585); test: Recombinant HIV Protease HPLC Assay; format: biochemical; conditions: recombinant HIV protease expressed in E. coli; substrate VSFNFPQITL-NH₂; pH 5.5; 37° for 30 min; HPLC readout
T1 construct: HIV protease was expressed in E. coli; made in house; host or cells: E. coli
Source text: The procedure is based on the capacity of the test compound to inhibit enzymatic cleavage by HIV protease of a decapeptide (the substrate) having an amino acid sequence which includes a known HIV protease cleavage site of a HIV polyprotein; see H.G. Krausslich et al., Proc. Natl. Acad. Sci. USA, 86, 807 (1989). Details of this assay together with the results obtained for exemplified compounds of formula 1 are described in the examples hereinafter.
Recombinant HIV Protease HPLC Assay: Enzyme: HIV protease was expressed in E. coli [construct pBRT1 prt⁺, see W.G. Farmerie et al., Science, 236,305 (1987)], according to the following protocol: Unless stated otherwise, all solutions are aqueous solutions.
E. coli cells containing the pBRT1 prt⁺ plasmid were used to inoculate a seed culture media composed of Luria-Bertani Broth containing 100µg/mL of ampicillin. Flasks were incubated at 37° under agitation for 17 h. Production flasks containing sterile M9 broth, supplemented with 100µg/ml of ampicillin, were inoculated at a level of 1% (v/v) using the seed culture described above. Total volume in each production flask was 500 mL in a 2 L Erlenmeyer flask. Flasks were incubated at 37° under agitation until a cell concentration corresponding to an optical density (λ = […]) of 0.6 was reached (no dilution). This time span was routinely 3-4 h. Flasks were then supplemented with 5mM isopropylthiogalactoside (IPTG, Research Organics, Cleveland, Ohio, USA) and incubation was continued until the cell concentration reached an optical density of 0.2 at 16-fold dilution. Flasks were then supplemented with 1mM phenylmethylsulfonyl fluoride (PMSF) and rapidly chilled to 4°. The bacterial cells were recovered by centrifugation at 4°. The wet pellet was stored at -70°.
All steps below were performed at 4° unless otherwise indicated. Thawed cells were mixed with buffer A [50 mM […] HCl(Tris-HCl, pH 7.4); 0.6 mM ethylenediaminetetraacetic acid (EDTA); 0.375 M NaCl, 0.2% Nonidet P-40 ^R (BDH Chemicals Ltd., Poole, UK); 1mM PMSF], at a ratio of one part cells to nine parts buffer A. Diatomaceous earth (Celite 545 ^R , John Manville, Lompoc, CA, USA) was added at a ratio of two parts to one part of wet cell weight. The resulting slurry was homogenized at high speed (ca. 20,000 rpm) on a Waring ^R industrial blender for 8 x 15 sec. pulses. Cell debris/Celite ^R was collected by centrifugation and the resulting pellet was extracted with 4.5 parts of buffer A to one part wet solids using the homogenization procedure described above. Supernatants from both homogenization steps were combined and soluble protein was precipitated by the addition of solid (NH₄)₂SO₄ to yield a final concentration of 75% saturation. This mixture was agitated for 60 min and the precipitate was recovered by centrifugation. The resulting pellet was suspended in buffer B [50mM Tris-HCl, pH 8; 30 mM NaCl; 1 mM DL-dithiothreitol(DTT); 1 mM EDTA; 1 mM PMSF; 10% glycerol], and dialyzed for 18h against the same buffer.
An aliquot of the dialyzed extract containing 150 mg of the protein was loaded onto a Sephadex A25 ^R anion exchange column. (Pharmacia, Uppsala, Sweden) with bed dimensions of 70 cm length and 2.5 cm diameter. The sample was eluted isocratically with buffer B at a linear flow rate of 10 cm/h. Fractions containing HIV protease activity (see below for assay description) were combined, and soluble protein was precipitated by the addition of saturated aqueous (NH₄)₂SO₄ to yield a total (NH₄)₂SO₄ concentration of 85% saturation. Precipitated protein was removed by centrifugation and the resulting pellet was dissolved in buffer C[50 mM 2-(4-morpholino)ethanesulfonic acid (MES), pH 5.5; 150 mM NaCl; 1 mM DTT; 1 mM EDTA; 10% glycerol]. This preparation was dialyzed for 18h against buffer C, and then frozen at -70°. All crude extracts were purified by chromatography in aliquots containing 150 mg of protein in the same manner as described above. […]

[2] = tested on: HIV; test: Inhibition of syncytia formation by HIV in HTLV-I transformed C8166 cells (adapted plaque assay); format: cell-based, H9/HTLV-IIIB; conditions: Human immunodeficiency virus 1, IIIB, C8166, 72 h, read-out: inhibition of syncytia formation
Source text: Typical of such procedures are those described by S. Harada and N. Yamamoto, Jpn. J. Cancer Res. (Gann), 76, 432 (1985), and S. Harada et al., Science 229, 563 (1985). An assay based on the latter procedures is described in the examples hereinafter.
The following protocol, used for screening antiviral effects of the compounds of formula 1, is adapted from a plaque assay utilizing HTLV-I transformed cells which was developed by Harada et al., supra. HTLV-I transformed cells are used in these assays because of the rapidity with which HIV will replicate in these cells. • 1. The test compound is dissolved in dimethylsulfoxide to a concentration of 5 mg/mL. The resultant solution can be stored at 4° until used. • 2. The resultant solution is diluted in RPMI 1640 (Gibco Laboratories, St. Lawrence, MA, USA) to four times (4x) the final concentration which is to be tested. Once diluted in RPMI 1640, the solution is used in the cell culture assay within 4 h. • 3. The 4x solution (50µL) is added to triplicate wells of a 96 well flat bottomed microtiter plate. RPMI […] also is added to control wells. • 4. […] Infectious titer of virus stocks are as previously determined by end point dilution on C8166 cells. […] Plates are then removed and centers of syncytia are counted in each well by low power phase contrast light microscopy. […] Percent inhibition of syncytia formation is calculated by the formula: [formula]

## CCC(CC)C(=O)NC(C(=O)NC(CC1CCCCC1)C(O)CC(=O)NC(CC1CC1)C(=O)NCCCc1ccccc1)C(C)C (stereo not shown) [(C2H5)2CHC(O)-Val-ACHPA-Cpa-NHCH2CH2CH2Ph]
[1]
  IC50: 135 nM

## CC(C)(C)CC(=O)NC(C(=O)NC(CC1CCCCC1)C(O)CC(=O)NC(CCC(=O)O)C(=O)NCCc1ccccc1)C(C)(C)C (stereo not shown) [(CH3)3CCH2C(O)-Tbg-ACHPA-Glu-NHCH2CH2Ph, (CH₃)₃CCH₂C(O)-Tbg-ACHPA-Glu-NHCH₂CH₂Ph]
[1]
  IC50: 110 nM

## COC(=O)CCC(NC(=O)CC(O)C(CC1CCCCC1)NC(=O)C(NC(=O)C(O)CO)C(C)(C)C)C(=O)NCCc1ccccc1 [(S)-HOCH₂CH(OH)C(O)-Tbg-ACHPA-Glu(OMe)NHCH₂CH₂Ph]
[2]
  inhibition at 20 µg/mL: 100%
[1]
  IC50: 200 nM

## CC(C)(C)C(NC(=O)C(O)CO)C(=O)NC(CC1CCCCC1)C(O)CC(=O)NC(CCC(=O)O)C(=O)NCCc1ccccc1 [(S)-HOCH₂CH(OH)C(O)-Tbg-ACHPA-Glu-NHCH₂CH₂Ph]
[1]
  IC50: 9.2 nM

## CC(=O)NC(C(=O)NC(CC1CCCCC1)C(O)CC(=O)NC(CC1CC1)C(=O)NCCc1ccccc1)C(C)(C)C (stereo not shown) [Ac-Tbg-ACHPA-Cpa-NHCH2CH2Ph, Ac-Tbg-ACHPA-Cpa-NHCH₂CH₂Ph]
[1]
  IC50: 93 nM

## COC(=O)CCC(NC(=O)CC(O)C(CC1CCCCC1)NC(=O)C(NC(C)=O)C(C)(C)C)C(=O)NCCc1ccccc1 (stereo not shown) [Ac-Tbg-ACHPA-Glu(OMe)-NHCH2CH2Ph, Ac-Tbg-ACHPA-Glu(OMe)-NHCH₂CH₂Ph]
[1]
  IC50: 150 nM

## CC(=O)NC(C(=O)NC(CC1CCCCC1)C(O)CC(=O)NC(CCC(=O)O)C(=O)NCCc1ccccc1)C(C)(C)C (stereo not shown) [Ac-Tbg-ACHPA-Glu-NHCH2CH2Ph, Ac-Tbg-ACHPA-Glu-NHCH₂CH₂Ph]
[1]
  IC50: 12 nM

## COC(=O)CCC(NC(=O)CC(O)C(CC1CCCCC1)NC(=O)C(NC(C)=O)C(C)C)C(=O)NCCc1ccccc1 (stereo not shown) [Ac-Val-ACHPA-Glu(OMe)-NHCH2CH2Ph, Ac-Val-ACHPA-Glu(OMe)NHCH₂CH₂Ph]
[1]
  IC50: 480 nM

## CC(=O)NC(C(=O)NC(CC1CCCCC1)C(O)CC(=O)NC(CCC(=O)O)C(=O)NCCc1ccccc1)C(C)C (stereo not shown) [Ac-Val-ACHPA-Glu-NHCH2CH2Ph, Ac-Val-ACHPA-Glu-NHCH₂CH₂Ph]
[1]
  IC50: 31 nM

## CC(=O)NC(C(=O)NC(CNC(CC(C)C)C(=O)NC(CCC(=O)O)C(=O)NCCc1ccccc1)Cc1ccccc1)C(C)C (stereo not drawn) [Ac-Val-Pheψ[CH2NH]Leu-Glu-NHCH2CH2Ph, Ac-Val-PheΨ[CH₂NH]Leu-Glu-NHCH₂CH₂Ph]
[1]
  IC50: 16 nM

## CCC(=O)NC(C(=O)NC(CC1CCCCC1)C(O)CC(=O)NC(CCC(=O)O)C(=O)NCCc1ccccc1)C(C)(C)C (stereo not shown) [CH3CH2C(O)-Tbg-ACHPA-Glu-NHCH2CH2Ph, CH₃CH₂C(O)-Tbg-ACHPA-Glu-NHCH₂CH₂Ph]
[2]
  inhibition at 20 µg/mL: 49%
[1]
  IC50: 15 nM
